According to the NIST ThermoML archive (doi:10.1021/je201014c):
Numbers after ± are expanded uncertainties.

Assay: mn = molality of the nth substance listed, in mol/kg
Settings: 100 kPa, Liquid, Direct current cell with electrodes

Q: Which molar conductivity (283.15 K, m1 = 0.0001021) does the source give for `CCn1cc[n+](C)c1.F[B-](F)(F)F` [1-ethyl-3-methylimidazolium tetrafluoroborate] + CN(C)C=O here?
A: 0.007524 ± 1e-05 S·m2/mol

Q: And the molar conductivity (283.15 K, m1 = 0.0002894)?
A: 0.00744 ± 1e-05 S·m2/mol

Q: What about the molar conductivity (283.15 K, m1 = 0.0004617) of the same molecule?
A: 0.007387 ± 1e-05 S·m2/mol

Q: And the molar conductivity (283.15 K, m1 = 0.000707)?
A: 0.007326 ± 1e-05 S·m2/mol

Q: And the molar conductivity (283.15 K, m1 = 0.001158)?
A: 0.007238 ± 1e-05 S·m2/mol

Q: What about the molar conductivity (283.15 K, m1 = 0.001876) of the same molecule?
A: 0.007128 ± 1e-05 S·m2/mol

Q: What about the molar conductivity (283.15 K, m1 = 0.002909) of the same molecule?
A: 0.007001 ± 1e-05 S·m2/mol

Q: What about the molar conductivity (283.15 K, m1 = 0.00391) of the same molecule?
A: 0.006899 ± 1e-05 S·m2/mol

Q: What about the molar conductivity (283.15 K, m1 = 0.006046) of the same molecule?
A: 0.006724 ± 1e-05 S·m2/mol

Q: And the molar conductivity (283.15 K, m1 = 0.008043)?
A: 0.006596 ± 1e-05 S·m2/mol

Q: And the molar conductivity (283.15 K, m1 = 0.01002)?
A: 0.006492 ± 1e-05 S·m2/mol

Q: What about the molar conductivity (283.15 K, m1 = 0.01201) of the same molecule?
A: 0.006403 ± 1e-05 S·m2/mol

Q: What about the molar conductivity (283.15 K, m1 = 0.0149) of the same molecule?
A: 0.006286 ± 1e-05 S·m2/mol

Q: And the molar conductivity (288.15 K, m1 = 9.159e-05)?
A: 0.008075 ± 1e-05 S·m2/mol

Q: What about the molar conductivity (288.15 K, m1 = 0.0002695) of the same molecule?
A: 0.007983 ± 1e-05 S·m2/mol

Q: And the molar conductivity (288.15 K, m1 = 0.0005098)?
A: 0.007901 ± 1e-05 S·m2/mol

Q: And the molar conductivity (288.15 K, m1 = 0.0006932)?
A: 0.007851 ± 1e-05 S·m2/mol

Q: What about the molar conductivity (288.15 K, m1 = 0.001168) of the same molecule?
A: 0.007746 ± 1e-05 S·m2/mol

Q: What about the molar conductivity (288.15 K, m1 = 0.001915) of the same molecule?
A: 0.007619 ± 1e-05 S·m2/mol

Q: And the molar conductivity (288.15 K, m1 = 0.002887)?
A: 0.007489 ± 1e-05 S·m2/mol

Q: What about the molar conductivity (288.15 K, m1 = 0.003934) of the same molecule?
A: 0.007374 ± 1e-05 S·m2/mol

Q: And the molar conductivity (288.15 K, m1 = 0.005914)?
A: 0.007199 ± 1e-05 S·m2/mol

Q: What about the molar conductivity (288.15 K, m1 = 0.007975) of the same molecule?
A: 0.007057 ± 1e-05 S·m2/mol

Q: And the molar conductivity (288.15 K, m1 = 0.009937)?
A: 0.006944 ± 1e-05 S·m2/mol

Q: And the molar conductivity (288.15 K, m1 = 0.01205)?
A: 0.00684 ± 1e-05 S·m2/mol

Q: And the molar conductivity (288.15 K, m1 = 0.01487)?
A: 0.006715 ± 1e-05 S·m2/mol

Q: And the molar conductivity (293.15 K, m1 = 0.0001225)?
A: 0.008604 ± 1e-05 S·m2/mol

Q: What about the molar conductivity (293.15 K, m1 = 0.0002931) of the same molecule?
A: 0.008516 ± 1e-05 S·m2/mol

Q: And the molar conductivity (293.15 K, m1 = 0.0004907)?
A: 0.008442 ± 1e-05 S·m2/mol

Q: And the molar conductivity (293.15 K, m1 = 0.0007255)?
A: 0.008372 ± 1e-05 S·m2/mol

Q: What about the molar conductivity (293.15 K, m1 = 0.001177) of the same molecule?
A: 0.008263 ± 1e-05 S·m2/mol

Q: And the molar conductivity (293.15 K, m1 = 0.001892)?
A: 0.00813 ± 1e-05 S·m2/mol

Q: And the molar conductivity (293.15 K, m1 = 0.002911)?
A: 0.007981 ± 1e-05 S·m2/mol

Q: And the molar conductivity (293.15 K, m1 = 0.003932)?
A: 0.00786 ± 1e-05 S·m2/mol

Q: What about the molar conductivity (293.15 K, m1 = 0.005979) of the same molecule?
A: 0.007668 ± 1e-05 S·m2/mol

Q: What about the molar conductivity (293.15 K, m1 = 0.007979) of the same molecule?
A: 0.00752 ± 1e-05 S·m2/mol

Q: And the molar conductivity (293.15 K, m1 = 0.009955)?
A: 0.007398 ± 1e-05 S·m2/mol

Q: And the molar conductivity (293.15 K, m1 = 0.01193)?
A: 0.007292 ± 1e-05 S·m2/mol

Q: What about the molar conductivity (293.15 K, m1 = 0.0148) of the same molecule?
A: 0.007155 ± 1e-05 S·m2/mol

Q: And the molar conductivity (298.15 K, m1 = 0.0001133)?
A: 0.009167 ± 1e-05 S·m2/mol

Q: What about the molar conductivity (298.15 K, m1 = 0.0002704) of the same molecule?
A: 0.009077 ± 1e-05 S·m2/mol

Q: What about the molar conductivity (298.15 K, m1 = 0.000473) of the same molecule?
A: 0.008993 ± 1e-05 S·m2/mol

Q: And the molar conductivity (298.15 K, m1 = 0.0006719)?
A: 0.008926 ± 1e-05 S·m2/mol

Q: And the molar conductivity (298.15 K, m1 = 0.001151)?
A: 0.008798 ± 1e-05 S·m2/mol

Q: And the molar conductivity (298.15 K, m1 = 0.001932)?
A: 0.008639 ± 1e-05 S·m2/mol

Q: And the molar conductivity (298.15 K, m1 = 0.00291)?
A: 0.008486 ± 1e-05 S·m2/mol

Q: What about the molar conductivity (298.15 K, m1 = 0.003882) of the same molecule?
A: 0.008361 ± 1e-05 S·m2/mol

Q: What about the molar conductivity (298.15 K, m1 = 0.005957) of the same molecule?
A: 0.008152 ± 1e-05 S·m2/mol

Q: And the molar conductivity (298.15 K, m1 = 0.007912)?
A: 0.007996 ± 1e-05 S·m2/mol

Q: And the molar conductivity (298.15 K, m1 = 0.009961)?
A: 0.007859 ± 1e-05 S·m2/mol

Q: And the molar conductivity (298.15 K, m1 = 0.012)?
A: 0.007742 ± 1e-05 S·m2/mol

Q: And the molar conductivity (298.15 K, m1 = 0.01485)?
A: 0.007598 ± 1e-05 S·m2/mol

Q: What about the molar conductivity (303.15 K, m1 = 0.0001433) of the same molecule?
A: 0.009709 ± 1e-05 S·m2/mol

Q: What about the molar conductivity (303.15 K, m1 = 0.0002976) of the same molecule?
A: 0.009622 ± 1e-05 S·m2/mol

Q: And the molar conductivity (303.15 K, m1 = 0.000507)?
A: 0.009532 ± 1e-05 S·m2/mol

Q: And the molar conductivity (303.15 K, m1 = 0.0007136)?
A: 0.00946 ± 1e-05 S·m2/mol

Q: And the molar conductivity (303.15 K, m1 = 0.001172)?
A: 0.00933 ± 1e-05 S·m2/mol

Q: And the molar conductivity (303.15 K, m1 = 0.001894)?
A: 0.009172 ± 1e-05 S·m2/mol

Q: What about the molar conductivity (303.15 K, m1 = 0.002913) of the same molecule?
A: 0.008999 ± 1e-05 S·m2/mol

Q: What about the molar conductivity (303.15 K, m1 = 0.003926) of the same molecule?
A: 0.008861 ± 1e-05 S·m2/mol

Q: And the molar conductivity (303.15 K, m1 = 0.005879)?
A: 0.008649 ± 1e-05 S·m2/mol

Q: And the molar conductivity (303.15 K, m1 = 0.007956)?
A: 0.008471 ± 1e-05 S·m2/mol

Q: And the molar conductivity (303.15 K, m1 = 0.009924)?
A: 0.00833 ± 1e-05 S·m2/mol

Q: And the molar conductivity (303.15 K, m1 = 0.01202)?
A: 0.0082 ± 1e-05 S·m2/mol

Q: What about the molar conductivity (303.15 K, m1 = 0.01489) of the same molecule?
A: 0.00805 ± 1e-05 S·m2/mol

Q: What about the molar conductivity (308.15 K, m1 = 0.0001026) of the same molecule?
A: 0.01031 ± 1e-05 S·m2/mol

Q: And the molar conductivity (308.15 K, m1 = 0.0003641)?
A: 0.010155 ± 1e-05 S·m2/mol

Q: And the molar conductivity (308.15 K, m1 = 0.0005016)?
A: 0.010095 ± 1e-05 S·m2/mol

Q: And the molar conductivity (308.15 K, m1 = 0.0006664)?
A: 0.010033 ± 1e-05 S·m2/mol

Q: And the molar conductivity (308.15 K, m1 = 0.001147)?
A: 0.009884 ± 1e-05 S·m2/mol

Q: And the molar conductivity (308.15 K, m1 = 0.001947)?
A: 0.009697 ± 1e-05 S·m2/mol

Q: What about the molar conductivity (308.15 K, m1 = 0.002894) of the same molecule?
A: 0.009525 ± 1e-05 S·m2/mol

Q: What about the molar conductivity (308.15 K, m1 = 0.003883) of the same molecule?
A: 0.009379 ± 1e-05 S·m2/mol

Q: And the molar conductivity (308.15 K, m1 = 0.00584)?
A: 0.009149 ± 1e-05 S·m2/mol

Q: And the molar conductivity (308.15 K, m1 = 0.007991)?
A: 0.008948 ± 1e-05 S·m2/mol

Q: What about the molar conductivity (308.15 K, m1 = 0.00998) of the same molecule?
A: 0.008792 ± 1e-05 S·m2/mol

Q: And the molar conductivity (308.15 K, m1 = 0.01192)?
A: 0.008661 ± 1e-05 S·m2/mol

Q: What about the molar conductivity (308.15 K, m1 = 0.01486) of the same molecule?
A: 0.008494 ± 1e-05 S·m2/mol

Q: What about the molar conductivity (313.15 K, m1 = 9.519e-05) of the same molecule?
A: 0.010895 ± 1e-05 S·m2/mol

Q: And the molar conductivity (313.15 K, m1 = 0.0002775)?
A: 0.010772 ± 1e-05 S·m2/mol

Q: And the molar conductivity (313.15 K, m1 = 0.000472)?
A: 0.010677 ± 1e-05 S·m2/mol

Q: And the molar conductivity (313.15 K, m1 = 0.0006836)?
A: 0.010592 ± 1e-05 S·m2/mol

Q: And the molar conductivity (313.15 K, m1 = 0.001159)?
A: 0.010438 ± 1e-05 S·m2/mol

Q: And the molar conductivity (313.15 K, m1 = 0.001948)?
A: 0.010242 ± 1e-05 S·m2/mol

Q: What about the molar conductivity (313.15 K, m1 = 0.002909) of the same molecule?
A: 0.010057 ± 1e-05 S·m2/mol

Q: What about the molar conductivity (313.15 K, m1 = 0.003934) of the same molecule?
A: 0.009897 ± 1e-05 S·m2/mol

Q: What about the molar conductivity (313.15 K, m1 = 0.005955) of the same molecule?
A: 0.009647 ± 1e-05 S·m2/mol

Q: And the molar conductivity (313.15 K, m1 = 0.007964)?
A: 0.009449 ± 1e-05 S·m2/mol

Q: What about the molar conductivity (313.15 K, m1 = 0.009905) of the same molecule?
A: 0.009289 ± 1e-05 S·m2/mol

Q: What about the molar conductivity (313.15 K, m1 = 0.01192) of the same molecule?
A: 0.009147 ± 1e-05 S·m2/mol

Q: What about the molar conductivity (313.15 K, m1 = 0.0152) of the same molecule?
A: 0.008968 ± 1e-05 S·m2/mol

Q: And the molar conductivity (318.15 K, m1 = 0.0001002)?
A: 0.011475 ± 1e-05 S·m2/mol

Q: What about the molar conductivity (318.15 K, m1 = 0.0002722) of the same molecule?
A: 0.011357 ± 1e-05 S·m2/mol

Q: What about the molar conductivity (318.15 K, m1 = 0.0004294) of the same molecule?
A: 0.011275 ± 1e-05 S·m2/mol

Q: And the molar conductivity (318.15 K, m1 = 0.0006853)?
A: 0.011165 ± 1e-05 S·m2/mol

Q: And the molar conductivity (318.15 K, m1 = 0.001173)?
A: 0.011 ± 1e-05 S·m2/mol

Q: What about the molar conductivity (318.15 K, m1 = 0.001899) of the same molecule?
A: 0.010808 ± 1e-05 S·m2/mol

Q: And the molar conductivity (318.15 K, m1 = 0.002947)?
A: 0.010593 ± 1e-05 S·m2/mol

Q: What about the molar conductivity (318.15 K, m1 = 0.003909) of the same molecule?
A: 0.010433 ± 1e-05 S·m2/mol

Q: And the molar conductivity (318.15 K, m1 = 0.005941)?
A: 0.010163 ± 1e-05 S·m2/mol

Q: What about the molar conductivity (318.15 K, m1 = 0.007935) of the same molecule?
A: 0.009952 ± 1e-05 S·m2/mol

Q: And the molar conductivity (318.15 K, m1 = 0.009999)?
A: 0.00977 ± 1e-05 S·m2/mol

Q: And the molar conductivity (318.15 K, m1 = 0.012)?
A: 0.009623 ± 1e-05 S·m2/mol

Q: What about the molar conductivity (318.15 K, m1 = 0.01494) of the same molecule?
A: 0.009458 ± 1e-05 S·m2/mol
